{
  "source": "patent US9023845B2",
  "about": "“Compositions and methods for treating lysosomal disorders” (priority 2007, dated 2015)",
  "key": {"[1]": {"tested_on": "Gaucher and/or Fabry B-cell lines", "test": "Effect on cultured cell GSLs (TLC, orcinol detection)", "assay_type": "cell-based", "conditions": "3 days, GSL fractions by TLC/orcinol"}, "Fabry mice [2]": {"tested_on": "Fabry mice", "conditions": "mouse, in vivo"}, "Fabry mice [3]": {"tested_on": "Fabry mice", "conditions": "mouse, in vivo, ip"}},
  "note": "Entries after “also recorded” stand apart in the source; their conditions may differ.",
  "data": [
    {"smiles": "CCOC/C=C/c1ccc(-c2nc(-c3ccc(NC(C)C)cc3)c(-c3ccc(NC(C)C)cc3)[nH]2)cc1", "note": "[Formula 2]", "values": [
      {"measurement": "Gb3 levels", "setting": "[1]; 4 μM", "result": "decrease"},
      {"measurement": "LacCer and GlcCer levels", "setting": "[1]; 4 μM", "result": "increased"},
      {"measurement": "complex GSL levels", "setting": "[1]; 8 μM", "result": "significant reduced"},
      {"measurement": "heart Gb3 staining (VT1)", "setting": "Fabry mice [2]", "result": "effective in reducing heart Gb3 staining"},
      {"measurement": "liver Gb3 staining (VT1)", "setting": "Fabry mice [2]", "result": "essentially no residual staining for Gb3 within the liver; also recorded: considerably less than in the control group; also recorded: more effective in reducing liver Gb3 staining as compared to mice treated with cyclosporine; also recorded: essentially removed Gb3 from the liver Kupffer cells"},
      {"measurement": "VT1 staining", "setting": "Fabry mice [3]", "result": "decreased VT1 staining"},
      {"measurement": "levels of GlcCer and/or LacCer", "setting": "Fabry mice [3]", "result": "increased levels"},
      {"measurement": "levels of complex GSLs such as Gb3", "setting": "Fabry mice [3]", "result": "lower levels"}
    ]}
  ]
}
